Key:
[1] = test system: TNFα production in human whole blood; assay: LPS induced TNFα production in human whole blood; type: cell-based; conditions: 1 ug/mL LPS, 20 hours
Protocol: (§1) Compounds of the present invention were also studied in in vitro cytokine production assays. Exemplary protocols follow.
(§2) Human whole blood and hWBC assays: Human whole blood was diluted by combining whole blood with no serum RPMI medium at a ratio of 1:1. 180 ul/well of the diluted whole blood/well was added to a 96 well plate. For WBC assay 100,000 cells/well were seeded in a 96-well plate with a volume of 100 ul/well. To make the compound master plate 9 ul of 30 mM compound solution was added into the wells in the assigned rows, then serial solutions with 4x dilutions were made in DMSO. That is, 9 uL of 100% DMSO were added into each of the rest wells and 3 uL of compound solution was taken from the one-step higher concentration solution and mixed well with the DMSO. An intermediate compound dilution plate was made by mixing 4 uL of the compound solution from the compound master plate with 196 uL of no serum RPMI medium. hWBC or human whole blood was treated for 0.5 hour by adding 20 uL/well of the compound and the control solutions from the intermediate compound plate to the cell plate. 80 uL/well or 20 uL/well of stimulant were then added to the human whole blood or hWBC respectively. […] The supernatants were then collected and cytokine levels were measured with ELISA for TNFα (R&D Systems, #DY210) and IFNα (R&D Systems, #41100-2) per manufacturer's instruction.

[2] = test system: LPS induced TNF alpha production; assay: Inhibition of LPS induced TNFα production in vivo; conditions: female Lewis rats, dosed PO 2 hours prior to LPS IV, serum TNFα after 1 hr; minimum efficacious dose
Protocol: Selected compounds were tested in vivo in female Lewis rats for LPS induced TNF alpha production by dosing PO for 2 hours prior to LPS administration IV, followed by bleeding after 1 hr for measurement of TNFα produced in serum using ELISA (Biosource). […] Compounds having an activity designated as “A” provided a MED<5.0 mg/kg; compounds having an activity designated as “B” provided a MED of 5.0-20 mg/kg; compounds having an activity designated as “C” provided a MED of 20-50 mg/kg; compounds having an activity designated as “D” provided a MED of >50 mg/kg

[3] = test system: IFNα production in human white blood cells (hWBC); assay: CpG induced IFNα production in hWBC; type: cell-based; conditions: 0.5 uM CpG, 20 hours
Protocol: as §1, §2

IC50 [1] [nM] | IC50 [3] [nM] | Structure (SMILES) | MED (mg/kg) [2]
≤ 250 | ≤ 250 | N#Cc1ccc2ncnc(N[C@H]3CC[C@H](N4CCC5(CC4)CC5)CC3)c2c1 [Compound I-7, 4-(((1r,4r)-4-(6-azaspiro[2.5]octan-6-yl)cyclohexyl)amino)-quinazoline-6-carbonitrile] | A (MED<5.0 mg/kg)
≤ 250 | 1000 to 10000 | N#Cc1ccc2ncnc(N[C@H]3CC[C@H](N4CCOCC4)CC3)c2c1 [Compound I-3, 4-(((1r,4r)-4-morpholinocyclohexyl)amino)quinazoline-6-carbonitrile] | C (MED of 20-50 mg/kg)

Reference: patent US20150329498A1, “IRAK INHIBITORS AND USES THEREOF” (Nimbus Iris, Inc., priority 2014, published 2015)
